Reference: patent US6348309B1, “Process for inactivating viruses in blood and blood products” (priority 1989, dated 2002)
Marks after values point to notes of the source that are not given here.

Key:
HIV-1 [1] = test: MB/light virus inactivation in plasma (Example 6, Table VI); type: cell-based; details: illumination 10 min
Suid Herpes Type 1 = type: cell-based
coagulation factor VIII = target: T1, coagulation factor VIII (Homo sapiens, UniProt P00451); test: Coagulation factor activity in human plasma with MB and light exposure (Example 10); type: biochemical
T1 construct: Varying amounts of MB were added to human plasma (2 ml aliquots); from tissue; host or cells: human plasma
T1 sequence (P00451 20-1332 limits assumed): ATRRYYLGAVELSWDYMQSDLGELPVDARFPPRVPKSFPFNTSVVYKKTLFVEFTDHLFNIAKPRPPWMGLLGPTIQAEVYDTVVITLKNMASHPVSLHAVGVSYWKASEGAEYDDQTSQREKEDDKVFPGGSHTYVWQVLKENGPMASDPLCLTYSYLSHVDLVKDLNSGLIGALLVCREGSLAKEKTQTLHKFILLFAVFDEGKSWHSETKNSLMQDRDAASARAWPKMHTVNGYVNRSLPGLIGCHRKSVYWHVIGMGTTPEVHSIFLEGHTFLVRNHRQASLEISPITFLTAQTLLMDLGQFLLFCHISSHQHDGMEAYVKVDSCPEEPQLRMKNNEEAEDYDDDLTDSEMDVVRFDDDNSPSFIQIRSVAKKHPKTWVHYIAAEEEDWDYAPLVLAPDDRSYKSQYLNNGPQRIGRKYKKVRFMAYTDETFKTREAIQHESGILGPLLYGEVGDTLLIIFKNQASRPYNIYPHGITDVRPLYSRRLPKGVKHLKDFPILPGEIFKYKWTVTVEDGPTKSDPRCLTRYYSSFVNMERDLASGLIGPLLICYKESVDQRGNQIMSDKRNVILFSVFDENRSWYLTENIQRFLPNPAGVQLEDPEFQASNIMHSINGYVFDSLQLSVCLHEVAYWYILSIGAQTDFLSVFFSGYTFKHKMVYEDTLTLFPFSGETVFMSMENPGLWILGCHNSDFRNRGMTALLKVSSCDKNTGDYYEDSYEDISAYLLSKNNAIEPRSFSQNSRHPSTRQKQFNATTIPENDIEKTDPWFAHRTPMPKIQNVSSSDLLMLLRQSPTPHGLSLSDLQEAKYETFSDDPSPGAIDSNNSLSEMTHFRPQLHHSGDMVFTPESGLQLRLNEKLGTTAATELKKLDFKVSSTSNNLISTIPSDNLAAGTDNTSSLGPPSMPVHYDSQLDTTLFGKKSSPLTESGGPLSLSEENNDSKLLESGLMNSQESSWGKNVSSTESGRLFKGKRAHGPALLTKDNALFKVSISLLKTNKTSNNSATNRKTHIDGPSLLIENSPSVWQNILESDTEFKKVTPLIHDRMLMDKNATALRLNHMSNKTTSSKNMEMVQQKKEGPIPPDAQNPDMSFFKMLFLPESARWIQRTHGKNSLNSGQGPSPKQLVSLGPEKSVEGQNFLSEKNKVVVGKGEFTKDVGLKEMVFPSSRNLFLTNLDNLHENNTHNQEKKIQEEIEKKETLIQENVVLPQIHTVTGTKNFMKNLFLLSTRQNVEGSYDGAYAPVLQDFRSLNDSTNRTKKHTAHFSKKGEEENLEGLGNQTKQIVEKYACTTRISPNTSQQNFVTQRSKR
T1 sequence (P00451 1668-2351 limits assumed): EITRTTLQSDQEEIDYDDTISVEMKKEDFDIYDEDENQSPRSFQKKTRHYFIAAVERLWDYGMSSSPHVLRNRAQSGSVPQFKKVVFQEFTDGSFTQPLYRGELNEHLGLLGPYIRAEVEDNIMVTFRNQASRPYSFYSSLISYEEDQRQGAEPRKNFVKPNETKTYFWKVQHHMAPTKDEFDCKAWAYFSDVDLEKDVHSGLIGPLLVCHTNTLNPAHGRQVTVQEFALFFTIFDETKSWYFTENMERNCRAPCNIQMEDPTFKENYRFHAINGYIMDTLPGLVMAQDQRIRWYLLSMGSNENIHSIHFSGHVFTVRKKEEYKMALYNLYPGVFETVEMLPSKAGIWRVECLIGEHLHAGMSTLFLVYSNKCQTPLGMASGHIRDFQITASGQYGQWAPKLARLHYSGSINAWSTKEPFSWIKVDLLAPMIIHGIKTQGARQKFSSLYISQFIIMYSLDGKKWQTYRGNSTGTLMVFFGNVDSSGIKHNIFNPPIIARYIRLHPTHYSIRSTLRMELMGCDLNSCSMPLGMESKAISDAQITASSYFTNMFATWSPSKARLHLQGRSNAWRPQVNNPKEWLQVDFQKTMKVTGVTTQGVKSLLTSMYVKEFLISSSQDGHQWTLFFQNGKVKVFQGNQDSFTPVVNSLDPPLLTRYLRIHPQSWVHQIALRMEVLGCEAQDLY

Semliki Forest = type: cell-based
Calici = type: cell-based
VSV [2] = type: cell-based, vesicular stomatitis virus
adenovirus = test: Photodynamic treatment of adenovirus with pre-incubation in the dark, titrated on FL cells (Example 7); type: cell-based; details: MB 1 μM; for Virus Titer: illumination 30 min 150,000 Lux
[3] = 1 to 2 mg/kg of body weight; cited from earlier work
SV40 = type: cell-based
HIV-1 [4] = test: MB/light treatment of HIV-1 in plasma, infectivity on MT-4 cells (Example 5); type: cell-based
VSV [5] = type: cell-based, vesicular stomatitis virus; remark: listed apart in the source

For CN(C)c1ccc2nc3ccc(=[N+](C)C)cc-3sc2c1 [MB, methylene blue], the “Inactivation Rate” value (HIV-1 [1]) was over 6.50 log10 TCID50, the “Inactivation Rate” value (Suid Herpes Type 1) was 4.43 * log10 TCID50 and the “Factor VIII” value (coagulation factor VIII; light exposure 0 h, MB 1 μM) was 0.45 E/ml. For the same molecule, the “Factor VIII” value (coagulation factor VIII; light exposure 0 h, MB 2.5 μM) was 0.33 E/ml, the “Factor VIII” value (coagulation factor VIII; light exposure 0 h, MB 10 μM) was 0.30 E/ml and the “Factor VIII” value (coagulation factor VIII; light exposure 1 h, MB 1 μM) was 0.24 E/ml. For the same molecule, the “Factor VIII” value (coagulation factor VIII; light exposure 1 h, MB 2.5 μM) was 0.24 E/ml, the “Factor VIII” value (coagulation factor VIII; light exposure 1 h, MB 10 μM) was 0.16 E/ml and the “Factor VIII” value (coagulation factor VIII; light exposure 2 h, MB 1 μM) was 0.23 E/ml. The “Factor VIII” value (coagulation factor VIII; light exposure 2 h, MB 2.5 μM) was 0.22 E/ml, the “Factor VIII” value (coagulation factor VIII; light exposure 2 h, MB 10 μM) was 0.15 E/ml and the “Factor VIII” value (coagulation factor VIII; light exposure 4 h, MB 1 μM) was 0.16 E/ml. The “Factor VIII” value (coagulation factor VIII; light exposure 4 h, MB 2.5 μM) was 0.29 E/ml, the “Factor VIII” value (coagulation factor VIII; light exposure 4 h, MB 10 μM) was 0.27 E/ml and the “Inactivation Rate” value (Semliki Forest) was over 7.00 log10 TCID50. For the same molecule, the “Inactivation Rate” value (Calici) was >3.9 * log10 TCID50, the “concentration of MB required for complete inactivation of VSV” value (VSV [2]) was 0.5 µM and the “inactivation factor (VSV completely inactivated)” value (VSV [2]) was “more than 4 log10”. It also gave a Virus Titer (adenovirus; pre-incubation 0 h) of 6.0 log10 TCID50, a Virus Titer (adenovirus; pre-incubation 1 h) of 5.5 log10 TCID50 and a Virus Titer (adenovirus; pre-incubation 4 h) of 6.0 log10 TCID50. For the same molecule, the Virus Titer (adenovirus; pre-incubation 24 h) was 6.0 log10 TCID50, the “change in viral infectivity” value (adenovirus; regardless of the pre-incubation time) was “no change in viral infectivity” and the “side effects in therapeutic use” value [3] was “without any significant side effects”. The “Inactivation Rate” value (SV40) was over 4.00 log10 TCID50, the “effect of the dye alone on the virus” value (HIV-1 [4]; MB 1 μM, no illumination) was “not detrimental to the virus” and the “reduction of viral infectivity” value (HIV-1 [4]; MB 1 μM, within the first 10 minutes of light exposure) was “approx. 6 log10 steps”. The “Log10 TCID50/ml HIV-1” value (HIV-1 [4]; Sample A, MB 1 μM without light, 0 min) was 6.00 Log10 TCID50/ml, the “Log10 TCID50/ml HIV-1” value (HIV-1 [4]; Sample A, MB 1 μM without light, 2 min) was 5.94 Log10 TCID50/ml and the “Log10 TCID50/ml HIV-1” value (HIV-1 [4]; Sample A, MB 1 μM without light, 5 min) was 5.94 Log10 TCID50/ml. The “Log10 TCID50/ml HIV-1” value (HIV-1 [4]; Sample A, MB 1 μM without light, 10 min) was 5.94 Log10 TCID50/ml, the “Log10 TCID50/ml HIV-1” value (HIV-1 [4]; Sample A, MB 1 μM without light, 15 min) was 6.06 Log10 TCID50/ml and the “Log10 TCID50/ml HIV-1” value (HIV-1 [4]; Sample A, MB 1 μM without light, 30 min) was 5.76 Log10 TCID50/ml. For the same molecule, the “Log10 TCID50/ml HIV-1” value (HIV-1 [4]; Sample A, MB 1 μM without light, 60 min) was 5.70 Log10 TCID50/ml, the “Log10 TCID50/ml HIV-1” value (HIV-1 [4]; Sample C, MB 1 μM + light 45,000 Lux, exposure 0 min) was 5.82 Log10 TCID50/ml and the “Log10 TCID50/ml HIV-1” value (HIV-1 [4]; Sample C, MB 1 μM + light 45,000 Lux, exposure 2 min) was 3.37 Log10 TCID50/ml. The “Log10 TCID50/ml HIV-1” value (HIV-1 [4]; Sample C, MB 1 μM + light 45,000 Lux, exposure 5 min) was 1.5 Log10 TCID50/ml, the “Log10 TCID50/ml HIV-1” value (HIV-1 [4]; Sample C, MB 1 μM + light 45,000 Lux, exposure 10 min) was “≦0.5 Log10 TCID50/ml” and the “Log10 TCID50/ml HIV-1” value (HIV-1 [4]; Sample C, MB 1 μM + light 45,000 Lux, exposure 15 min) was “≦0.5 Log10 TCID50/ml”. For the same molecule, the “Log10 TCID50/ml HIV-1” value (HIV-1 [4]; Sample C, MB 1 μM + light 45,000 Lux, exposure 30 min) was “≦0.5 Log10 TCID50/ml”, the “Log10 TCID50/ml HIV-1” value (HIV-1 [4]; Sample C, MB 1 μM + light 45,000 Lux, exposure 60 min) was “≦0.5 Log10 TCID50/ml” and the “inactivation of VSV” value (VSV [5]) was “only partial inactivation”. For the same molecule, the “time until viral infectivity almost completely reduced to the detection limit” value (VSV [5]) was 15 to 30 min.
